This is an account of results in ChEMBL document CHEMBL5120763 (J Nat Prod, 2022).

Calls of active or inactive are those of the source. The rule behind the calls is not given here.

The subject of data set [1] is NCI-H1299. Put plainly: Induction of apoptosis in human NCI-H1299 cells assessed as late apoptosis cells level at 0.5 uM incubated for 24 hrs by FITC annexin V/PI double-staining based flow cytometry (reference value: 4.27%). The class given is functional. (A flow cytometer gives signals particle by particle.)
Data set [2] is described as follows: Toxicity in BALB/c nude mouse xenografted with human A549 cells assessed as toxic effect on heart at 1 to 2 mg/kg, ip dosed every 2 days for total of 18 days by H and E staining. Conditions: in vivo, dose 1-2 mg/kg. Format: organism-based. Background: A xenograft is tissue or cells of one species grown in another, often human tumour cells in immunodeficient mice.

Data set [3] relates to NCI-H1299. Briefly: Induction of apoptosis in human NCI-H1299 cells assessed as reduction in Bcl2 levels at 0.25 to 1 uM incubated for 24 hrs by Western blot analysis. Conditions: dose 0.25-1 µM. Format: functional, cell-based. (In general: In western blotting, separated proteins are transferred to a membrane and probed.)
Data set [4] has as its system PC-9. Put plainly: Induction of apoptosis in human PC-9 cells assessed as reduction in Bcl2 levels at 0.25 to 1 uM incubated for 48 hrs by Western blot analysis. The class given is functional, cell-based. The settings on record: dose 0.25-1 µM.
In data set [5] the test system is NCI-H1299. Put plainly: Induction of apoptosis in human NCI-H1299 cells assessed as increase in cleaved PARP1 levels at 0.25 to 1 uM incubated for 24 hrs by Western blot analysis. The class given is functional, cell-based. The settings on record: dose 0.25-1 µM.
Data set [6] deals with PC-9. Briefly: Induction of apoptosis in human PC-9 cells assessed as late apoptosis cells level at 0.5 uM incubated for 48 hrs by FITC annexin V/PI double-staining based flow cytometry (reference value: 2.07%). The class given is functional.
Data set [7] has as its system PC-9. Briefly: Induction of apoptosis in human PC-9 cells assessed as late apoptosis cells level at 1 uM incubated for 48 hrs by FITC annexin V/PI double-staining based flow cytometry (reference value: 2.07%). Format: functional.
Data set [8] concerns NCI-H1299. Briefly: Induction of apoptosis in human NCI-H1299 cells at 0.25 to 1 uM incubated for 24 hrs by FITC annexin V/PI double-staining based flow cytometry. The class given is functional, cell-based. The settings on record: dose 0.25-1 µM, DDE = dose-dependent effect.
The nature of data set [9]: Toxicity in BALB/c nude mouse xenografted with human A549 cells assessed as induction of body weight loss at 1 to 2 mg/kg, ip dosed every 2 days for total of 18 days. The class given is organism-based. The settings on record: in vivo, 432 h, dose 1-2 mg/kg, time 18 day.
The test system of data set [10] is A549. Put plainly: Antitumor activity against human A549 cells xenografted in BALB/c nude mouse assessed as reduction in tumor size at 2 mg/kg, ip dosed every 2 days for total of 18 days. Format: functional, organism-based. Conditions: time 18.0 day.
The test system of data set [11] is NCI-H1299. Put plainly: Induction of apoptosis in human NCI-H1299 cells assessed as late apoptosis cells level at 1 uM incubated for 24 hrs by FITC annexin V/PI double-staining based flow cytometry (reference value: 4.27%). Format: functional.
Data set [12] concerns PC-9. Briefly: Induction of apoptosis in human PC-9 cells at 0.25 to 1 uM incubated for 48 hrs by FITC annexin V/PI double-staining based flow cytometry. The class given is functional, cell-based. The settings on record: dose 0.25-1 µM, DDE = dose-dependent effect.
Data set [13] can be described thus: Toxicity in BALB/c nude mouse xenografted with human A549 cells assessed as toxic effect on kidney at 1 to 2 mg/kg, ip dosed every 2 days for total of 18 days by H and E staining. The class given is organism-based. The settings on record: in vivo, 432 h, dose 1-2 mg/kg, time 18 day.
Data set [14] can be described thus: Toxicity in BALB/c nude mouse xenografted with human A549 cells assessed as toxic effect on lung at 1 to 2 mg/kg, ip dosed every 2 days for total of 18 days by H and E staining. Format: organism-based. The settings on record: in vivo, 432 h, dose 1-2 mg/kg, time 18 day.
Data set [15] concerns PC-9. Put plainly: Induction of apoptosis in human PC-9 cells assessed as increase in cleaved PARP1 levels at 0.25 to 1 uM incubated for 48 hrs by Western blot analysis. The class given is functional, cell-based. Conditions: dose 0.25-1 µM.
Data set [16] has as its system A549. Put plainly: Increase in cleaved PARP1 protein expression levels in tumor of BALB/c nude mouse xenografted with human A549 cells at 1 to 2 mg/kg, ip dosed every 2 days for total of 18 days by Western blot analysis. The class given is functional, organism-based. The settings on record: dose 1-2 mg/kg, time 18.0 day.
Data set [17] can be described thus: Toxicity in BALB/c nude mouse xenografted with human A549 cells assessed as toxic effect on liver at 1 to 2 mg/kg, ip dosed every 2 days for total of 18 days by H and E staining. Format: organism-based. The settings on record: in vivo, 432 h, dose 1-2 mg/kg, time 18 day.
Data set [18] concerns PC-9. Put plainly: Induction of apoptosis in human PC-9 cells assessed as late apoptosis cells level at 0.25 uM incubated for 48 hrs by FITC annexin V/PI double-staining based flow cytometry (reference value: 2.07%). Format: functional.
The subject of data set [19] is NCI-H1299. Put plainly: Induction of apoptosis in human NCI-H1299 cells assessed as late apoptosis cells level at 0.25 uM incubated for 24 hrs by FITC annexin V/PI double-staining based flow cytometry (reference value: 4.27%). Format: functional.

On to `C[C@]12CC[C@H](O)C[C@@]1(O)CC[C@@H]1[C@@H]2CC[C@]2(C)[C@@H](c3ccc(=O)oc3)CC[C@]12O` [TELOCINOBUFAGIN], for which the Activity is 25.06% in the data set with NCI-H1299 [1]; “Non-Toxic” in data set [2]; 11.37% in the data set with PC-9 [6]; 22.7% in the data set on PC-9 [7]; “Dde” with NCI-H1299 [8]; “Non-Toxic” in [9]. The Activity is 38.41% with NCI-H1299 [11]; “Dde” in the data set with PC-9 [12]; “Non-Toxic” in [13]; “Non-Toxic” in data set [14]; “Non-Toxic” in data set [17]; 6.66% in the data set with PC-9 [18]. Besides, in the data set with NCI-H1299 [19], the Activity is given as 16.98%. Besides, the outcome in the data set with NCI-H1299 [3], in the data set on PC-9 [4], with NCI-H1299 [5], in the data set on A549 [10], in the data set on PC-9 [15] and in the data set with A549 [16] was Active.
